# Data as given in paper PMC8839658, “Design and Activity of Novel Oxadiazole Based Compounds That Target Poly(ADP-ribose) Polymerase” (Molecules, 2022).
# Tested on: MCF-7 cells
# Experiment: MCF-7 cell viability assay (Alamar Blue)
# Type: cell-based, human
# Conditions: Homo sapiens, MCF7, 72 h, MCF-7, 72 h, Alamar Blue; read-out: IC50, cell viability of MCF-7 cells
# Protocol: Initially, the newly synthesized oxadiazoles were examined in cell viability studies in human breast cancer (MCF-7) cells using Alamar Blue assays.
# MCF-7 and MDA-MB-231 (2000) cells were cultured in MEM or Leibovitz’s L-15 medium enriched with 2% FBS and maintained in a humidified atmosphere of 5% CO2 at 37 °C [44]. DMSO dissolved compounds were kept as a stock solution, and diluted with a cell culture medium to the desired concentration. Cancer cells (4 × 10^3) were grown overnight in 96-well plates, cultured, and treated with oxadiazoles or Olaparib at 0, 0.01, 0.1, 10, 100, and 1000 µM concentrations for 72 h. The inhibitory effect of the compounds was assessed using Alamar Blue reagent.
# MCF-7 and MDA-MB-231 were treated with 5u, 5s and Olaparib (0, 0.01, 0.1, 1, 10, 100 µM) for 72 h, respectively. The viability of MCF-7 (A) and MDA-MB-231 cells (B) were analyzed using a microplate reader to measure the fluorescence of Alamar Blue reagent (excitation wavelength is between 530–560 nm and emission wavelength is 590 nm). The results are means of triplicate determinations.
row,Structure (SMILES),IC50
1,COc1ccc(Cc2nnc(-c3cccc(-c4cccnc4)c3)o2)cc1 [C00013],30.9 µM
2,c1cc(-c2ccncc2)cc(-c2nnc(-c3ccc4c(c3)OCCO4)o2)c1 [C00012],> 100 µM
3,COc1ccc(Cc2nnc(-c3cccc(-c4cncc(C)c4C)c3)o2)cc1OC [C00009],33.2 µM
4,O=Cc1cccc(-c2cccc(-c3nnc(-c4ccc5c(c4)OCCO5)o3)c2)c1 [C00021],85.3 µM
5,c1cc(-c2nnc(-c3ccc4c(c3)OCCO4)o2)cc(-c2cccc3ccccc23)c1 [C00010],74.8 µM
6,c1cncc(-c2cccc(-c3nnc(-c4ccc5c(c4)OCCO5)o3)c2)c1 [C00016],182 µM
7,"COc1ccc(Cc2nnc(-c3cccc(-c4ccc(C(C)=O)s4)c3)o2)cc1 [compound 5w, 1-(5-(3-(5-(4-Methoxybenzyl)-1,3,4-oxadiazol-2-yl)phenyl)thiophen-2-yl)ethanone]",23.1 µM
8,c1cc(-c2cncnc2)cc(-c2nnc(-c3ccc4c(c3)OCCO4)o2)c1 [C00007],43.5 µM
9,COc1ccc(Cc2nnc(-c3cccc(-c4cncnc4)c3)o2)cc1 [C00003],31.5 µM
10,Cc1c(-c2cccc(-c3nnc(-c4ccc5c(c4)OCCO5)o3)c2)ccnc1F [C00017],265 µM
11,"COc1ccc(Cc2nnc(-c3cccc(-c4ccnc(F)c4C)c3)o2)cc1 [compound 5r, 2-(3-(2-Fluoro-3-methylpyridin-4-yl)phenyl)-5-(4-methoxybenzyl)-1,3,4-oxadiazole]",25 µM
12,FC(F)(F)c1ccc(-c2cccc(-c3nnc(-c4ccc5c(c4)OCCO5)o3)c2)cc1 [C00004],205 µM
13,Cc1cc(-c2cccc(-c3nnc(-c4ccc5c(c4)OCCO5)o3)c2)cnc1Cl [C00002],160 µM
14,"COc1cccc2c1C(=O)c1c(O)c3c(c(O)c1C2=O)C[C@@](O)(C(=O)CO)C[C@@H]3O[C@H]1C[C@H](N)[C@H](O)[C@H](C)O1 [Doxorubicin, reference compound]",0.24 µM
15,Cc1cc(-c2cccc(-c3nnc(-c4ccc5c(c4)OCCO5)o3)c2)cnc1F [C00022],84 µM
16,"COc1ccc(Cc2nnc(-c3cccc(-c4cnc(F)c(C)c4)c3)o2)cc1OC [compound 5p, 2-(3,4-Dimethoxybenzyl)-5-(3-(6-fluoro-5-methylpyridin-3-yl)phenyl)-1,3,4-oxadiazole]",18.4 µM
17,"COc1ccc(Cc2nnc(-c3cccc(-c4cccnc4)c3)o2)cc1OC [compound 5m, 2-(3,4-Dimethoxybenzyl)-5-(3-(pyridin-3-yl)phenyl)-1,3,4-oxadiazole]",27.1 µM
18,O=C(NC1CCCC1)c1cccc(-c2cccc(-c3nnc(-c4ccc5c(c4)OCCO5)o3)c2)c1 [C00006],161 µM
19,COc1ccc(Cc2nnc(-c3cccc(-c4cnc(F)c(C)c4)c3)o2)cc1 [C00018],41.2 µM
20,COc1ccc(Cc2nnc(-c3cccc(-c4ccc(C(C)=O)s4)c3)o2)cc1OC [C00025],> 100 µM
21,COc1cccc(-c2cccc(-c3nnc(-c4ccc5c(c4)OCCO5)o3)c2)c1 [C00008],345 µM
22,"COc1ccc(Cc2nnc(-c3cccc(-c4cncnc4)c3)o2)cc1OC [compound 5h, 2-(3,4-Dimethoxybenzyl)-5-(3-(pyrimidin-5-yl)phenyl)-1,3,4-oxadiazole]",21.8 µM
23,Cc1cncc(-c2cccc(-c3nnc(-c4ccc5c(c4)OCCO5)o3)c2)c1C [C00011],76.4 µM

# Same assay, conditions: MCF-7, 72 h, Alamar Blue; read-out: IC50, cell viability of MCF-7 cells
row,Structure (SMILES),IC50
1,COc1ccc(Cc2nnc(-c3cccc(-c4cccnc4)c3)o2)cc1OC [C00014],27.1 µM
2,COc1ccc(Cc2nnc(-c3cccc(-c4ccnc(F)c4C)c3)o2)cc1 [C00024],25 µM
3,COc1ccc(Cc2nnc(-c3cccc(-c4cncnc4)c3)o2)cc1OC [C00005],21.9 µM
4,COc1ccc(Cc2nnc(-c3cccc(-c4ccnc(F)c4C)c3)o2)cc1OC [C00015],15.3 µM
5,COc1ccc(Cc2nnc(-c3cccc(-c4cnc(F)c(C)c4)c3)o2)cc1OC [C00020],18.4 µM
6,COc1ccc(Cc2nnc(-c3cccc(-c4cccc(C=O)c4)c3)o2)cc1 [C00019],1.45 µM
7,COc1ccc(Cc2nnc(-c3cccc(-c4ccc(C(C)=O)s4)c3)o2)cc1 [C00023],23.1 µM

# Tested on: not given
# Experiment: not given
# Conditions: not given
row,Structure (SMILES),melting point
1,"c1cc(-c2ccncc2)cc(-c2nnc(-c3ccc4c(c3)OCCO4)o2)c1 [5f, 2-(2,3-Dihydrobenzo[b][1,4]dioxin-6-yl)-5-(3-(pyridin-4-yl)phenyl)-1,3,4-oxadiazole]",194 to 196 °C
2,"Cc1cncc(-c2cccc(-c3nnc(-c4ccc5c(c4)OCCO5)o3)c2)c1C [5k, 2-(2,3-Dihydrobenzo[b][1,4]dioxin-6-yl)-5-(3-(4,5-dimethylpyridin-3-yl)phenyl)-1,3,4-oxadiazole]",198 to 200 °C
3,"COc1ccc(Cc2nnc(-c3cccc(-c4ccnc(F)c4C)c3)o2)cc1 [compound 5r, 2-(3-(2-Fluoro-3-methylpyridin-4-yl)phenyl)-5-(4-methoxybenzyl)-1,3,4-oxadiazole]",94 to 96 °C
4,"c1cncc(-c2cccc(-c3nnc(-c4ccc5c(c4)OCCO5)o3)c2)c1 [5n, 2-(2,3-Dihydrobenzo[b][1,4]dioxin-6-yl)-5-(3-(pyridin-3-yl)phenyl)-1,3,4-oxadiazole]",138 to 140 °C
5,"O=C(NC1CCCC1)c1cccc(-c2cccc(-c3nnc(-c4ccc5c(c4)OCCO5)o3)c2)c1 [5c, N-Cyclopentyl-3′-(5-(2,3-dihydrobenzo[b][1,4]dioxin-6-yl)-1,3,4-oxadiazol-2-yl)-[1,1′-biphenyl]-3-carboxamide]",186 to 188 °C
6,"FC(F)(F)c1ccc(-c2cccc(-c3nnc(-c4ccc5c(c4)OCCO5)o3)c2)cc1 [5b, 2-(2,3-Dihydrobenzo[b][1,4]dioxin-6-yl)-5-(4′-(trifluoromethyl)-[1,1′-biphenyl]-3-yl)-1,3,4-oxadiazole]",160 to 162 °C
7,"c1cc(-c2nnc(-c3ccc4c(c3)OCCO4)o2)cc(-c2cccc3ccccc23)c1 [5e, 2-(2,3-Dihydrobenzo[b][1,4]dioxin-6-yl)-5-(3-(naphthalen-1-yl)phenyl)-1,3,4-oxadiazole]",156 to 158 °C
8,"COc1ccc(Cc2nnc(-c3cccc(-c4cncnc4)c3)o2)cc1 [compound 5g, 2-(4-Methoxybenzyl)-5-(3-(pyrimidin-5-yl)phenyl)-1,3,4-oxadiazole]",90 to 92 °C
9,"Cc1c(-c2cccc(-c3nnc(-c4ccc5c(c4)OCCO5)o3)c2)ccnc1F [5t, 2-(2,3-Dihydrobenzo[b][1,4]dioxin-6-yl)-5-(3-(2-fluoro-3-methylpyridin-4-yl)phenyl)-1,3,4-oxadiazole]",128 to 130 °C
10,"COc1ccc(Cc2nnc(-c3cccc(-c4cnc(F)c(C)c4)c3)o2)cc1OC [compound 5p, 2-(3,4-Dimethoxybenzyl)-5-(3-(6-fluoro-5-methylpyridin-3-yl)phenyl)-1,3,4-oxadiazole]",91 to 93 °C
11,"COc1ccc(Cc2nnc(-c3cccc(-c4cnc(F)c(C)c4)c3)o2)cc1 [compound 5o, 2-(3-(6-Fluoro-5-methylpyridin-3-yl)phenyl)-5-(4-methoxybenzyl)-1,3,4-oxadiazole]",86 to 88 °C
12,"COc1ccc(Cc2nnc(-c3cccc(-c4cccnc4)c3)o2)cc1OC [compound 5m, 2-(3,4-Dimethoxybenzyl)-5-(3-(pyridin-3-yl)phenyl)-1,3,4-oxadiazole]",78 to 80 °C
13,"c1cc(-c2cncnc2)cc(-c2nnc(-c3ccc4c(c3)OCCO4)o2)c1 [5i, 2-(2,3-Dihydrobenzo[b][1,4]dioxin-6-yl)-5-(3-(pyrimidin-5-yl)phenyl)-1,3,4-oxadiazole]",190 to 192 °C
14,"Cc1cc(-c2cccc(-c3nnc(-c4ccc5c(c4)OCCO5)o3)c2)cnc1F [5q, 2-(2,3-Dihydrobenzo[b][1,4]dioxin-6-yl)-5-(3-(6-fluoro-5-methylpyridin-3-yl)phenyl)-1,3,4-oxadiazole]",144 to 146 °C
15,"COc1ccc(Cc2nnc(-c3cccc(-c4cncnc4)c3)o2)cc1OC [compound 5h, 2-(3,4-Dimethoxybenzyl)-5-(3-(pyrimidin-5-yl)phenyl)-1,3,4-oxadiazole]",98 to 100 °C
16,"COc1ccc(Cc2nnc(-c3cccc(-c4cncc(C)c4C)c3)o2)cc1OC [compound 5j, 2-(3,4-Dimethoxybenzyl)-5-(3-(4,5-dimethylpyridin-3-yl)phenyl)-1,3,4-oxadiazole]",90 to 92 °C

# Target: T1, recombinant human PARP enzyme (PARP1) (Homo sapiens, UniProt P09874)
# T1 construct: purchased R&D Systems Ltd., Abingdon, UK 4677-096-K
# T1 sequence (P09874 whole entry): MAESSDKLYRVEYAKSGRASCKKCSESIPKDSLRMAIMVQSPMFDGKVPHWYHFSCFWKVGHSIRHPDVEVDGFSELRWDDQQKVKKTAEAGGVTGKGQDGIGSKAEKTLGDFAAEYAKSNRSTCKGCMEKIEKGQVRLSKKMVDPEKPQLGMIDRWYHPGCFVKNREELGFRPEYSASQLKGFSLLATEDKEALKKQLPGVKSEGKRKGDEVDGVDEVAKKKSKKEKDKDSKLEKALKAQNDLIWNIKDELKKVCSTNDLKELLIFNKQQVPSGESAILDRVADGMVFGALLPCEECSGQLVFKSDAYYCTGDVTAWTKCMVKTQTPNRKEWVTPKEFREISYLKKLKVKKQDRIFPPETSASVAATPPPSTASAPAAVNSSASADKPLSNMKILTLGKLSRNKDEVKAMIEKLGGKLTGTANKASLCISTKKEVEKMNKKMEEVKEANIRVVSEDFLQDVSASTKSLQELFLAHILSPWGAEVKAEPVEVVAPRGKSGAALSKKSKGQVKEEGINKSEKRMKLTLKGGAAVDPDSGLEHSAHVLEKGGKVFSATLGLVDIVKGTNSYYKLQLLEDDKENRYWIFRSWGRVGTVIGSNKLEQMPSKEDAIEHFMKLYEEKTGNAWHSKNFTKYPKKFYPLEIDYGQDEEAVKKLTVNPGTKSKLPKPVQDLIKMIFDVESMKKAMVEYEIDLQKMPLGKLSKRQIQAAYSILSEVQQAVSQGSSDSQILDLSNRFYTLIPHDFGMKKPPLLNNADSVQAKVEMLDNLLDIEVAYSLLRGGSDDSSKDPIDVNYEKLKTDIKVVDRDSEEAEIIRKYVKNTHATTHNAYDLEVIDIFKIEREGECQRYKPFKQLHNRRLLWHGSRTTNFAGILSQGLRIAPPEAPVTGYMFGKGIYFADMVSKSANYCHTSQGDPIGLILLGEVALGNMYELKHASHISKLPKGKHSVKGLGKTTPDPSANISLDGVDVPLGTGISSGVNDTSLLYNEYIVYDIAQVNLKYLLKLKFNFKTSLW
# Experiment: PARP activity, PARP/Apoptosis Universal Colorimetric Assay Kit
# Type: biochemical
# Conditions: 0.01 µM, n = 3
# Protocol: PARP activity was measured using the PARP/Apoptosis Universal Colorimetric Assay Kit (4677-096-K, R&D Systems Ltd., Abingdon, UK). The enzyme inhibition assay uses the histone proteins immobilized 96-well plate, which measures the incorporation of ADP-ribose (biotin-tagged), followed by detection using streptavidin-conjugated horse-radish peroxidase, and finally the color development after the addition of substrate. Oxadiazoles were incubated with the recombinant human PARP enzyme prior to detection.
row,Structure (SMILES),inhibition at 0.01 µM
1,"NC(=O)c1cccc(N)c1 [3-Aminobenzamide, reference compound]",0.5%

# Same assay, conditions: 0.1 µM, n = 3
row,Structure (SMILES),inhibition at 0.1 µM
1,"NC(=O)c1cccc(N)c1 [3-Aminobenzamide, reference compound]",6.17%

# Same assay, conditions: 1 µM, n = 3
row,Structure (SMILES),inhibition at 1 µM
1,"NC(=O)c1cccc(N)c1 [3-Aminobenzamide, reference compound]",23.3%

# Same assay, conditions: 10 µM, n = 3
row,Structure (SMILES),inhibition at 10 µM
1,"NC(=O)c1cccc(N)c1 [3-Aminobenzamide, reference compound]",56.6%

# Same assay, conditions: 100 µM, n = 3
row,Structure (SMILES),inhibition at 100 µM
1,"NC(=O)c1cccc(N)c1 [3-Aminobenzamide, reference compound]",85.7%
